# Data published in PMC10607100, “Anticancer and Antiphytopathogenic Activity of Fluorinated Isatins and Their Water-Soluble Hydrazone Derivatives” (International Journal of Molecular Sciences, 2023).
# Read-outs that look alike come from different tables or passages of the source.
# Legend:
# Assay type in all cases: cell-based
# [1] = system: Micrococcus luteus B-109; assay: Agar-well diffusion, bactericidal activity; settings: Micrococcus luteus
# How it was run: (§1)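 Bacteria spread on agar (BP medium; GYCa for X. campestris; pH 7.2–7.4) with 6-mm wells, each receiving 150 μL compound solution. Cultures grown at 28 °C; growth-inhibition zone width measured after 36–40 h.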
# [2] = system: Pectobacterium atrosepticum 1043; assay: Agar-well diffusion, bactericidal activity; settings: Pectobacterium atrosepticum, 1043, 2 mM/L
# How it was run: as §1
# [3] = system: Pectobacterium carotovorum subsp. carotovorum MI; assay: Agar-well diffusion, bactericidal activity; settings: Pectobacterium carotovorum, 2 mM/L
# How it was run: as §1
# [4] = system: Pseudomonas fluorescens EL-2.1; assay: Agar-well diffusion, bactericidal activity; settings: Pseudomonas fluorescens, EL2.1, 2 mM/L
# How it was run: as §1
# [5] = system: Xanthomonas campestris B-610; assay: Agar-well diffusion, bactericidal activity; settings: Xanthomonas campestris
# How it was run: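 Agar-well diffusion on GYCa agar (pH 7.2–7.4) seeded with bacterial suspension; 150 μL compound solution placed in 6-mm wells. Inhibition zone width measured after 36–40 h incubation.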
# [6] = system: five representative phytopathogens; assay: Agar-well diffusion, bactericidal activity over the panel of phytopathogens; settings: 36 h, 2 mM solutions; dependent on the test system used; read-out: inhibition zone width (mm), range over the test systems
# Source text: Plant pathogenic bacterial strains Micrococcus luteus B-109, Pectobacterium atrosepticum 1043, Pectobacterium carotovorum subsp. carotovorum MI, Pseudomonas fluorescens EL-2.1, and Xanthomonas campestris B-610 and the fungal strain Fusarium oxysporum IBPPM 543 were from the Collection of Rhizosphere Microorganisms, IBPPM RAS (WFCC no. 975, WDCM no. 1021) (CM IBPPM, http://collection.ibppm.ru). The pathogenic fungus Phytophthora cactorum VKM F-985, provided by the All-Russian Collection of Microorganisms (VKM) and deposited at the A.E. Favorsky Irkutsk Institute of Chemistry, SB RAS, was also used as a test organism. Bacteria M. luteus, P. carotovorum subsp. carotovorum, P. atrosepticum, and P. fluorescens were grown in a meat–peptone medium (BP), and X. campestris was grown in the medium with glucose, yeast extract, and calcium carbonate (GYCa). Solid media contained Bacto agar (18 g/L); pH was adjusted to 7.2–7.4. All bacterial cultures were grown at 28 °C. The mycelial cultures of F. oxysporum and P. cactorum were grown on a glucose–peptone–yeast (GPY) nutrient medium at 27 °C. For inoculum preparation, both fungal strains were initially grown on the agar GPY in Petri dishes and then transferred into the seed medium by punching out 5 mm of the agar plate culture with a self-designed cutter.
# The antibacterial and antifungal activities of the compounds were explored using the agar-well diffusion method and the technique of mycelial radial growth inhibition. The method of diffusion in agar (measuring the diameter of growth inhibition zones) was used to determine the bactericidal activity. The 6-mm wells were made in agar medium (GYCa for Xanthomonas campestris or BP for other bacteria). Bacterial suspensions were distributed over the agar surface, and the tested compound’s solution (150 μL) was added to each well. The width of growth inhibition zones around the wells was determined after incubation for 36–40 h.
# [7] = system: Fusarium oxysporum IBPPM 543; assay: Mycelial radial growth inhibition; settings: Fusarium oxysporum; for inhibition of growth at 1 µM: 1 nmol/mL; for inhibition of growth at 1 µM / inhibition of growth at 5 µM / inhibition of growth at 30 µM / inhibition of growth at 40 µM: read-out: Inhibition value, I (%); for inhibition of growth at 5 µM: 5 nmol/mL; for inhibition of growth at 30 µM: 30 nmol/mL; for inhibition of growth at 40 µM: 40 nmol/mL
# How it was run: (§2)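 Compounds mixed into molten GPY agar at various concentrations; centre inoculated with a 5-mm mycelial plug from 10-day cultures and incubated at 27 °C. Colony diameter compared with untreated control until control plate was covered (usually 12 days); ≥4 replicates in two experiments.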
# [8] = system: Phytophthora cactorum VKM F-985; assay: Mycelial radial growth inhibition; settings: Phytophthora cactorum; for inhibition of growth at 1 µM: 1 nmol/mL; for inhibition of growth at 1 µM / inhibition of growth at 3 µM / inhibition of growth at 7 µM / inhibition of growth at 20 µM / inhibition of growth / inhibition of growth at 40 µM: read-out: Inhibition value, I (%); for inhibition of growth at 3 µM: 3 nmol/mL; for inhibition of growth at 7 µM: 7 nmol/mL; for inhibition of growth at 20 µM: 20 nmol/mL; for inhibition of growth: 27 nmol/mL; for inhibition of growth at 40 µM: 40 nmol/mL
# How it was run: as §2
# [9] = Table S3, read-out: Inhibition zone width (mm), not less
# [10] = IBPPM543, 72 h, age of the fungus 3 days
# [11] = IBPPM543, 120 h, age of the fungus 5 days
# [12] = IBPPM543, 168 h, age of the fungus 7 days
# [13] = IBPPM543, 216 h, age of the fungus 9 days
# [14] = 120 h, age of the fungus 5 days
# [15] = 168 h, age of the fungus 7 days
# [16] = 216 h, age of the fungus 9 days
structure (smiles),measurement,setting,value
Cc1ccc[n+](CC(=O)N/N=C2\C(=O)N(Cc3cccc(C(F)(F)F)c3)c3ccccc32)c1C [Compound 7c],zone of inhibition at 2000 µM,"[1]; B109, 2 mM/L, average of 3 experiments, read-out: width of the inhibition zone (mm), M. luteus",7 mm
same,zone of inhibition at 2000 µM,"[1]; B109, Table S3, 2 mM/L, read-out: Inhibition zone width (mm), not less",≥ 7 mm
same,zone of inhibition at 2000 µM,"[2]; average of 3 experiments, read-out: width of the inhibition zone (mm), P. atrosepticum",6 mm
same,zone of inhibition at 2000 µM,[2]; [9],≥ 6 mm
same,zone of inhibition at 2000 µM,"[3]; average of 3 experiments, read-out: width of the inhibition zone (mm), P. carotovorum subsp. carotovorum",7 mm
same,zone of inhibition at 2000 µM,[3]; [9],≥ 7 mm
same,zone of inhibition at 2000 µM,"[4]; average of 3 experiments, read-out: width of the inhibition zone (mm), Ps. fluorescens",7 mm
same,zone of inhibition at 2000 µM,[4]; [9],≥ 7 mm
same,zone of inhibition at 2000 µM,"[5]; B610, 2 mM/L, average of 3 experiments, read-out: width of the inhibition zone (mm), X. campestris",9 mm
same,zone of inhibition at 2000 µM,"[5]; B610, Table S3, 2 mM/L, read-out: Inhibition zone width (mm), not less",≥ 9 mm
same,zone of inhibition at 2000 µM,[6],6 to 9 mm
same,inhibition of growth at 1 µM,[7]; [10],22%
same,inhibition of growth at 5 µM,[7]; [10],36%
same,inhibition of growth at 30 µM,[7]; [10],45%
same,inhibition of growth at 40 µM,[7]; [10],57%
same,EC50,"[7]; IBPPM543, 120 h, day 5, read-out: EC50, µg/mL at Day 5, F. oxysporum",13.9 µg/mL
same,inhibition of growth at 1 µM,[7]; [11],21%
same,inhibition of growth at 5 µM,[7]; [11],35%
same,inhibition of growth at 30 µM,[7]; [11],41%
same,inhibition of growth at 40 µM,[7]; [11],63%
same,inhibition of growth at 1 µM,[7]; [12],15%
same,inhibition of growth at 5 µM,[7]; [12],27%
same,inhibition of growth at 30 µM,[7]; [12],44%
same,inhibition of growth at 40 µM,[7]; [12],66%
same,inhibition of growth at 1 µM,[7]; [13],10%
same,inhibition of growth at 5 µM,[7]; [13],22%
same,inhibition of growth at 30 µM,[7]; [13],36%
same,inhibition of growth at 40 µM,[7]; [13],64%
same,inhibition of growth at 1 µM,"[8]; 72 h, age of the fungus 3 days",10%
same,inhibition of growth at 3 µM,"[8]; 72 h, age of the fungus 3 days",20%
same,inhibition of growth at 7 µM,"[8]; 72 h, age of the fungus 3 days",26%
same,inhibition of growth at 20 µM,"[8]; 72 h, age of the fungus 3 days",32%
same,inhibition of growth,"[8]; 72 h, age of the fungus 3 days",48%
same,inhibition of growth at 40 µM,"[8]; 72 h, age of the fungus 3 days",55%
same,EC50,"[8]; 120 h, day 5, read-out: EC50, µg/mL at Day 5, P. cactorum",20 µg/mL
same,inhibition of growth at 1 µM,[8]; [14],11%
same,inhibition of growth at 3 µM,[8]; [14],18%
same,inhibition of growth at 7 µM,[8]; [14],22%
same,inhibition of growth at 20 µM,[8]; [14],27%
same,inhibition of growth,[8]; [14],36%
same,inhibition of growth at 40 µM,[8]; [14],56%
same,inhibition of growth at 1 µM,[8]; [15],12%
same,inhibition of growth at 3 µM,[8]; [15],17%
same,inhibition of growth at 7 µM,[8]; [15],22%
same,inhibition of growth at 20 µM,[8]; [15],25%
same,inhibition of growth,[8]; [15],33%
same,inhibition of growth at 40 µM,[8]; [15],44%
same,inhibition of growth at 1 µM,[8]; [16],11%
same,inhibition of growth at 3 µM,[8]; [16],16%
same,inhibition of growth at 20 µM,[8]; [16],9%
same,inhibition of growth,[8]; [16],28%
same,inhibition of growth at 40 µM,[8]; [16],41%
